The values below come from patent US8476255B2, “Histone deacetylase inhibitors” (Orchid Chemicals & Pharmaceuticals Limited, priority 2007, dated 2013).

One experiment deals with NCIH460 (lung) cells. The experiment in a line: Anti-cancer screen (MTT), NCIH460. Conditions: Homo sapiens, NCI-H460, NCIH460, 48 hours, MTT; for GI50: read-out: Cell growth inhibition NCIH460 (Lung) GI50; for LC50: read-out: Cell growth inhibition NCIH460 (Lung) LC50; for IC (TGI): read-out: Cell growth inhibition NCIH460 (Lung) TGI. The class given is cell-based. The method, then:
(§1) Experimental drugs were screened for anti-cancer activity in three cell lines using five concentrations for each compound. The cell lines —HCT 116 (colon), NCIH460 (lung) and U251 (glioma) were maintained in DMEM containing 10% fetal bovine serum. 96-well microtiter plates are inoculated with cells in 100 μL of cell suspension (5×10^4 cells/mL) for 24 hours at 37° C., 5% CO2, 95% air and 100% relative humidity. A separate plate with these cell lines is also inoculated to determine cell viability before the addition of the compounds (T0).
(§2) Following 24-hours incubation, test compounds were added to the 96 well plates. Each plate contains one of the above cell lines and the following samples in triplicate: five different dilutions (0.01, 0.1, 1, 10 and 100 μM) of four test compounds, appropriate dilutions of a cytotoxic standard and growth medium (untreated) wells. Test compounds were dissolved in DMSO to prepare 20 mM stock solutions on the day of drug addition and serial dilutions were carried out in complete growth medium at 2× strength such that 100 μL added to wells gave final concentrations (0.01, 0.1, 1, 10 and 100 μM) in the well. SAHA was used as standard drug in these experiments.
(§3) For T0 measurement, 24 hours after seeding the cells, 20 μL of 3-(4,5-dimethyl-2-thiazolyl)-2,5-diphenyl-2H-tetrazolium (MTT) solution per well was added to the ‘T0’ plate and incubated for 3 hours at 37° C. in a CO2 incubator. The plate containing cells and test compounds was treated similarly after 48 hours of incubation. After 3 hours of MTT addition, well contents were aspirated carefully followed by addition of 150 μL DMSO per well. Plates were agitated to ensure dissolution of the formazan crystals in DMSO and absorbance was read at 570 nm (A570).
(§4) (Mosmann T. Rapid colorimetric assay for cellular growth and survival: application to proliferation and cytotoxicity assays. J Immunol Methods 1983; 65(1-2): 55-63; Anne Monks et al. Feasibility of high-flux anticancer drug screen using a diverse panel of cultured human tumor cell lines”. JNCI, Vol. 83, No. 11, 1991).

The subject of a further experiment is HCT 116 (colon) cells. The experiment in a line: Anti-cancer screen (MTT), HCT 116. The class given is cell-based. Conditions: Homo sapiens, HCT-116, HCT116, 48 hours, MTT; for GI50: read-out: Cell growth inhibition HCT116 (Colon) GI50; for CC50: read-out: Cell growth inhibition HCT116 (Colon) LC50; for IC (TGI): read-out: Cell growth inhibition HCT116 (Colon) TGI. As for the experimental part: as §1, §2, §3, §4

The test system of experiment [1] is NCIH460, HCT116 and U251 cells. The experiment in a line: Anti-cancer screen, mean GI50 over cell lines. The class given is cell-based. Conditions: mean over cell lines; read-out: Cell growth inhibition Mean GI50. As for the experimental part: as §1, §2, §3, §4
Experiment [2] concerns HDAC (Mouse Liver Extract). The experiment in a line: HDAC inhibition assay using Boc-Lys(Ac)-AMC substrate. To be noted: mouse liver enzyme. The class given is biochemical. As for the experimental part:
Inhibition of HDAC has been implicated to modulate transcription and to induce apoptosis or differentiation in cancer cells. The fluorometric assay provides a fast and fluorescence based method that eliminates radioactivity, extractions or chromatography, as used in traditional assays. The assay is based on two steps. First, the HDAC fluorometric substrate, which comprises an acetylated lysine side chain, is incubated with a sample containing HDAC activity (Mouse Liver Extract). Deacetylation of the substrate sensitizes the substrate, in the second step; treatment with the Trypsin stop solution produces a fluorophore that can be easily analyzed using fluorescence plate reader. Assay was done in 96-well black microplate and total volume of the assay was […]. […] The plate was pre-incubated at 37° C. for 5 minutes. […] The plate was incubated at 37° C. for 30 min. The reaction was stopped by adding 100 μL, of Trypsin stop solution and incubating at 37° C. for 15-30 min. Measuring the fluorescence at excitation wavelength of 360 nm and emission wavelength of 460 nm monitored the release of AMC. Buffer alone and substrate alone served as blank. […] (Dennis Wegener et al, Anal. Biochem, 321, 2003, 202-208).

The test system of a further experiment is U251 (glioma) cells. The experiment in a line: Anti-cancer screen (MTT), U251. The class given is cell-based. Conditions: Homo sapiens, U-251, U251, 48 hours, MTT; for GI50: read-out: Cell growth inhibition U251 (Glioma) GI50; for LC50 (concentration giving 50% net cell kill relative to the time-zero cell count): read-out: Cell growth inhibition U251 (Glioma) LC50; for IC (TGI): read-out: Cell growth inhibition U251 (Glioma) TGI. The method, then: as §1, §2, §3, §4

In the case of `Nc1ccccc1NC(=O)c1ccc(CNC(=O)/C(=C/c2ccc(F)c(C(F)(F)F)c2)c2ccc([N+](=O)[O-])cc2)cc1` [Compound 5, N-(2-Aminophenyl)-4-((3-(4-fluoro-3-trifluoromethylphenyl)-2-(4-nitrophenyl)acrylamido)methyl)benzamide], in the experiment with NCIH460 (lung) cells, the GI50 (commonly the concentration giving 50% growth inhibition) was determined as 5.5 µM, the LC50 (usually the concentration that kills 50% of the test population) is greater than 100 µM and the IC (TGI) was greater than 100 µM. Besides, in the experiment with HCT 116 (colon) cells, the GI50 was 3.1 µM, the CC50 is greater than 100 µM and the IC (TGI) is 11 µM. Further, the 50% growth inhibitory concentration (GI50) in experiment [1] was 4.3 µM. Besides, in experiment [2], the “HDAC inhibition % (1 μM)” value was determined as 0.0% and the “HDAC inhibition % (10 μM)” value is given as −27.4%.
For the compound `Nc1ccccc1NC(=O)c1ccc(CNC(=O)/C(=C/C2CC2)c2ccc(F)cc2)cc1` [Compound 14, N-(2-Aminophenyl)-4-((3-(cyclopropyl)-2-(4-fluorophenyl)acrylamido)methyl)benzamide], in the experiment on NCIH460 (lung) cells, the GI50 was found to be 8 µM, the LC50 is 82 µM and the IC (TGI) is 49 µM. Also, in the experiment on HCT 116 (colon) cells, the GI50 came to 5.6 µM, the CC50 was 81 µM and the IC (TGI) amounted to 24 µM. In experiment [1], the GI50 was 6.8 µM. Besides, in experiment [2], the “HDAC inhibition % (1 μM)” value is listed as 22.8% and the “HDAC inhibition % (10 μM)” value came out at 31.6%.
Regarding `Nc1ccccc1NC(=O)c1ccc(CNC(=O)/C(=C/c2ccncc2)c2ccc(F)cc2)cc1` [Compound 15, N-(2-Aminophenyl)-4-((3-(pyridin-4-yl)-2-(4-fluorophenyl)acrylamido)methyl)benzamide], in the experiment with NCIH460 (lung) cells, the GI50 came out at 8.8 µM, the LC50 stood at 95 µM and the IC (TGI) was found to be 60 µM. Besides, in the experiment with HCT 116 (colon) cells, the GI50 turned out to be 2.7 µM, the CC50 was 94 µM and the IC (TGI) was 30 µM. Also, the GI50 in experiment [1] worked out at 5.8 µM. In addition, in experiment [2], the “HDAC inhibition % (1 μM)” value is reported as 42.7%; the “HDAC inhibition % (10 μM)” value is reported as 56.9%; the IC50 (in general, the midpoint of a concentration-inhibition curve) worked out at 3.8 µM.
For the compound `COc1ccc(/C(=C\c2ccc(SC)cc2)C(=O)NCc2ccc(C(=O)Nc3ccccc3N)cc2)cc1` [Compound 16, N-(2-Aminophenyl)-4-((3-(4-methylthiophenyl)-2-(4-methoxyphenyl)acrylamido)methyl)benzamide], in the experiment on NCIH460 (lung) cells, the GI50 was determined as 45 µM, the LC50 is greater than 100 µM and the IC (TGI) was 97 µM. In the experiment with HCT 116 (colon) cells, the GI50 came out at 40 µM, the CC50 was greater than 100 µM and the IC (TGI) was determined as 82 µM. Moreover, the GI50 in experiment [1] was 42.5 µM. Moreover, in experiment [2], the “HDAC inhibition % (1 μM)” value turned out to be 30.7% and the “HDAC inhibition % (10 μM)” value amounted to 46.0%.
Take `COc1cc(/C=C(/C(=O)NCc2ccc(C(=O)Nc3ccccc3N)cc2)c2ccc(F)cc2)cc(OC)c1` [Compound 17, N-(2-Aminophenyl)-4-((3-(3,5-dimethoxyphenyl)-2-(4-fluorophenyl)acrylamido)methyl)benzamide]: in the experiment with NCIH460 (lung) cells, the GI50 was found to be 38 µM, the median lethal concentration (LC50) was greater than 100 µM and the IC (TGI) is 80 µM. Moreover, in the experiment on HCT 116 (colon) cells, the GI50 stood at 29 µM, the CC50 is greater than 100 µM and the IC (TGI) is 69 µM. Moreover, the 50% growth inhibitory concentration (GI50) in experiment [1] worked out at 33.5 µM. In experiment [2], the “HDAC inhibition % (1 μM)” value stood at 25.7% and the “HDAC inhibition % (10 μM)” value came to 20.3%.
Turning to `CSc1ccc(/C=C(/C(=O)NCc2ccc(C(=O)Nc3ccccc3N)cc2)c2ccccc2Cl)cc1` [Compound 23, N-(2-Aminophenyl)-4-((3-(4-methylthiophenyl)-2-(2-chlorophenyl)acrylamido)methyl)benzamide], in the experiment with NCIH460 (lung) cells, the GI50 was 34 µM, the LC50 is greater than 100 µM and the IC (TGI) is greater than 100 µM. Further, in the experiment on HCT 116 (colon) cells, the GI50 turned out to be 4 µM, the CC50 came out at 98 µM and the IC (TGI) is 8 µM. In addition, in the experiment on U251 (glioma) cells, the GI50 was greater than 100 µM, the LC50 (concentration giving 50% net cell kill relative to the time-zero cell count) was greater than 100 µM and the IC (TGI) is greater than 100 µM. For the same compound, the GI50 in experiment [1] was 19 µM.
As for `COc1ccc(/C(=C\c2ccc(SC)cc2)C(=O)NCc2ccc(C(=O)NO)cc2)cc1` [Compound 57, 4-((2-(4-Methoxyphenyl)-3-(4-methylthiophenyl)acrylamido)methyl)-N-hydroxybenzamide], in the experiment on NCIH460 (lung) cells, the GI50 was 3 µM, the LC50 is 33 µM and the IC (TGI) is 8 µM. In the experiment on HCT 116 (colon) cells, the GI50 amounted to 1.8 µM, the CC50 was determined as 54 µM and the IC (TGI) is 8 µM. Besides, in the experiment with U251 (glioma) cells, the GI50 was found to be 0.2 µM, the LC50 (concentration giving 50% net cell kill relative to the time-zero cell count) came to 60 µM and the IC (TGI) turned out to be 0.4 µM. In experiment [1], the GI50 was 1.7 µM.
With `CSc1ccc(/C=C(/C(=O)NCc2ccc(C(=O)NO)cc2)c2ccc(C)cc2)cc1` [Compound 58, 4-((2-(4-Methylphenyl)-3-(4-methylthiophenyl)acrylamido)methyl)-N-hydroxybenzamide], in the experiment with NCIH460 (lung) cells, the GI50 came out at 2.1 µM, the LC50 amounted to 81 µM and the IC (TGI) was determined as 6 µM. In the experiment with HCT 116 (colon) cells, the GI50 amounted to 2.8 µM, the CC50 is 65 µM and the IC (TGI) came to 18 µM. In the experiment on U251 (glioma) cells, the GI50 was 21 µM, the LC50 (concentration giving 50% net cell kill relative to the time-zero cell count) is 80 µM and the IC (TGI) came to 35 µM. Also, in experiment [1], the GI50 turned out to be 8.6 µM.
`COc1ccc(/C(=C\c2ccc(SC)cc2)C(=O)NCCCCCC(=O)NO)cc1` [Compound 92, 6-(2-(4-Methoxyphenyl)-3-(4-methylthiophenyl)acrylamido)-N-hydroxy hexanamide]: in the experiment on NCIH460 (lung) cells, the GI50 amounted to 6 µM, the LC50 came out at 82 µM and the IC (TGI) stood at 40 µM. Further, in the experiment with HCT 116 (colon) cells, the GI50 was 7.5 µM, the CC50 is 87 µM and the IC (TGI) was 46 µM. For the same compound, in the experiment on U251 (glioma) cells, the GI50 was found to be 10 µM, the LC50 (concentration giving 50% net cell kill relative to the time-zero cell count) amounted to 76 µM and the IC (TGI) came to 16 µM. Besides, the GI50 in experiment [1] amounted to 7.8 µM.
As for `O=C(CCCCCNC(=O)/C(=C/C1CC1)c1ccc(F)cc1)NO` [Compound 93, 6-(2-(4-Fluorophenyl)-3-(cyclopropyl)acrylamido)-N-hydroxy hexanamide], in the experiment on NCIH460 (lung) cells, the 50% growth inhibitory concentration (GI50) is greater than 100 µM, the LC50 was greater than 100 µM and the IC (TGI) is greater than 100 µM. Also, in the experiment with HCT 116 (colon) cells, the GI50 was 54 µM, the CC50 is greater than 100 µM and the IC (TGI) was greater than 100 µM. Further, in the experiment with U251 (glioma) cells, the GI50 was found to be 92 µM, the LC50 (concentration giving 50% net cell kill relative to the time-zero cell count) is greater than 100 µM and the IC (TGI) is greater than 100 µM. In addition, in experiment [1], the GI50 was found to be 73 µM.
Turning to `CSc1ccc(/C=C(/C(=O)NCCCCCC(=O)NO)c2ccccc2F)cc1` [Compound 94, 6-(2-(2-Fluorophenyl)-3-(4-methylthiophenyl)acrylamido)-N-hydroxy hexanamide], in the experiment with NCIH460 (lung) cells, the GI50 was 4.2 µM, the LC50 is 74 µM and the IC (TGI) is 26 µM. Moreover, in the experiment with HCT 116 (colon) cells, the concentration for 50% growth inhibition (GI50) came to 3.3 µM, the CC50 came to 80 µM and the IC (TGI) is 22 µM. Besides, in the experiment on U251 (glioma) cells, the GI50 is 1 µM, the LC50 (concentration giving 50% net cell kill relative to the time-zero cell count) came out at 70 µM and the IC (TGI) came out at 10 µM. The GI50 in experiment [1] turned out to be 2.8 µM.
